According to patent US9157067B2, “Pluripotent cells from mammalian late epiblast layer” (priority 2006, dated 2015):

Assays:
Type in all cases: cell-based
Rat EpiSCs = assay: Oct-4 immunostaining of rat EpiSCs grown in supplemented CDM; settings: for expression of the pluripotency marker Oct-4: after one week in CDM, 5B431542 10 uM, BMP4 10 ng/ml + 5B431542 10 uM, Activin 10 ng/ml + Noggin 100 ng/ml
Description: hESCs, mouse ESCs or EpiSCS were fixed for 20 minutes at 4° C. in 4% paraformaldehyde (PFA) and then washed three times in PBS. Cells were incubated for 20 minutes at room temperature in PBS containing 10% goat serum (Serotec) and subsequently incubated over night at 4° C. with primary antibody diluted in 1% goat serum in PBS as follows: SSEA-3 (1:100, Santa Cruz), SSAE-1 (1:25, gift from PW Andrews), Tra-1-60 (1:100, Santa CruZ), Oct-4 (1:100, SantaCruz), Sox2 (1:100, Abeam ab15830), Nanog (1:100, Abeam), Blirnpl (Abeam). Cells were then washed three times in PBS and incubated with fluorescein-Isothiocyanate-conjugated anti-mouse IgG or IgM (Sigma 1:200 in 1% goat serum in PBS) or rat IgM (Jackson laboratory 1:300 in goat serum in PBS) or rabbit IgG (Jackson laboratory 1:200 in donkey serum in PBS) for two hours at room temperature. Unbound secondary antibody was removed by 3 washes in PBS. Hoechst 33258 was added to the first wash (Sigma 1:10000).
Rat EpiSCs were grown in CDM supplemented in the presence of Activin (10 ng/ml), 5B431542 (10 uM), BMP4 10 ng/ml+5B431542 (10 uM) or Activin (10 ng/ml)+Noggin (IOOng/ml). After one week, the expression of the pluripotency marker Oct-4 was analysed using immunostaining. […] Similar results were obtained with mouse EpiSCs.

[1] = tested on: mouse late epiblast layer; assay: Derivation of EpiSC lines from mouse late epiblast layers; settings: dissected mouse epiblasts in CDM with BMP4 (50 ng/ml) and LIF
Description: Similar culture conditions were tested for derivation of pluripotent cells from pre- and post-implantation rodent embryos. […] For derivation at post implantation stages, the late epiblast layer of embryos at pre- or early gastrulation stages (5.5 dpc or 6.5 dpc) was separated from extraembryonic tissues by microdissection using Cell Dissociation Buffer (Invitrogen) at 4° C. for 15-20 min. to promote dissociation of the layers. […] After 24 hours, the epiblast layers formed colonies of compact cells having a high nucleo-cytoplasmic ratio, a characteristic morphological trait of pluripotent embryonic stem cells. Cells on the edge of the colony started to differentiate the following day, thereby producing a broad ring of stromal cells surrounding smaller aggregates of compact cells. These heterogeneous populations proceeded to form larger colonies of cells 4-5 days later. The latter colonies were picked, dissociated into smaller clumps using collagenase IV (Invitrogen) and then transferred to new dishes. Resulting colonies were passaged again 5 days later using collagenase and mechanical dissociation. […] These cells were designated Epiblast Stem Cells (EpiSCs) on the basis of their origin from pure epiblast cell layers.
Dissected mouse epiblasts were grown in CDM supplemented with BMP4 (50 ng/ml) and LIF, two growth factors required to maintain the pluripotent status of mouse ESCs.

rat epiblast layers = assay: Derivation of EpiSC lines from rat epiblast layers; settings: addition to CDM supplemented with Activin
Excerpt: The hypothesis that Activin and FGF signalling in pluripotency are conserved in mammalian development is supported by the ability of Activin/Nodal signalling to maintain long-term pluripotency of both human ESCs and mouse EpiSCs. As a further test of this hypothesis, we attempted to derive EpiSCs from rats, a species from which embryonic stem cell derivation has been problematic. Following the method we established in the mouse, epiblast layers were dissected from rat embryos at pre-gastrula stages (E 7.5-8.5) and grown on fibronectin-coated or FBS coated plates in CDM supplemented with Activin and FGF. […] Nevertheless, four EpiSC lines were derived out of 14 embryos of the Wistar strain and 1 EpiSC line was derived out of 20 embryos from the Sprague-Dawley strain using CDM supplemented with Activin alone.

Molecule	expression of the pluripotency marker Oct-4 (Rat EpiSCs)	derivation of EpiSC lines [1]	differentiation of early epiblast cultures (rat epiblast layers)	other results
NC(=O)c1ccc(-c2nc(-c3ccccn3)c(-c3ccc4c(c3)OCO4)[nH]2)cc1 [5B431542, reference compound]	loss of Oct-4 expression	–	–	differentiation of EpiSCs (Rat EpiSCs; inhibition of Activin/Nodal signalling): induced rapid differentiation of EpiSCs
BMP4: growth factor required with LIF to maintain mouse ESC pluripotency	not able to rescue the pluripotent status of EpiSCs	not able to derive any EpiSC lines	–	–
EGF: growth factor added to rat epiblast cultures	–	–	induced differentiation	–
FGF2: fibroblast growth factor 2	–	–	induced differentiation	–
HGF: growth factor added to rat epiblast cultures	–	–	induced differentiation	–
LIF: Leukaemia Inhibitory Factor	–	not able to derive any EpiSC lines	–	–
